Test results reported in patent publication US20220041627A1, “PRODRUGS OF ANTI-CANCER AND ANTI-AUTOIMMUNE DISEASES THERAPEUTIC AGENTS, AND METHODS OF MAKING AND USE THEREOF” (UNIVERSITY OF MARYLAND, BALTIMORE, priority 2018, published 2022).

Key:
OVCAR-8 = test: NCI-60 growth inhibition, OVCAR-8; assay type: cell-based, human
Text: (§1) The anticancer effects of compounds 1a-1b against 60 human cancer cell lines (the Developmental Therapeutics Program of NCI) were studied. The cell lines were derived from different cancer types including leukemia, non-small-cell lung cancer, colon cancer, CNS cancer, melanoma, ovarian cancer, renal cancer, prostate cancer, and breast cancer (Table 1; the assay protocol can be found at: https://dtp.cancer.gov/default.htm). Compound 1a caused over 50% growth inhibition for most tested cell lines. […] Without wishing to be bound by any particular theory, it is believed that the differences in the anticancer effects between compounds 1a and 1b may be due to the more favorable cell membrane permeability of the boronic ester 1a.

SW-620 = test: NCI-60 growth inhibition, SW-620; assay type: cell-based, human
Text: as §1

SN12C = test: NCI-60 growth inhibition, SN12C; assay type: cell-based, human; settings: Renal Cancer SN12C, 48 h
Text: as §1

DU-145 = test: NCI-60 growth inhibition, DU-145; assay type: cell-based, human
Text: as §1

A498 = test: NCI-60 growth inhibition, A498; assay type: cell-based, human
Text: as §1

U251 = test: NCI-60 growth inhibition, U251; assay type: cell-based, human
Text: as §1

HCT-116 = test: NCI-60 growth inhibition, HCT-116; assay type: cell-based, human
Text: as §1

HOP-62 = test: NCI-60 growth inhibition, HOP-62; assay type: cell-based, human
Text: as §1

NCI-H460 = test: NCI-60 growth inhibition, NCI-H460; assay type: cell-based, human
Text: as §1

HL-60(TB) = test: NCI-60 growth inhibition, HL-60(TB); assay type: cell-based, human; settings: Leukemia HL-60(TB), 48 h
Text: as §1

KM12 = test: NCI-60 growth inhibition, KM12; assay type: cell-based, human
Text: as §1

786-0 = test: NCI-60 growth inhibition, 786-0; assay type: cell-based, human
Text: as §1

A549/ATCC = test: NCI-60 growth inhibition, A549/ATCC; assay type: cell-based, human; settings: Non-Small Cell lung Cancer A549/ATCC, 48 h
Text: as §1

SNB-19 = test: NCI-60 growth inhibition, SNB-19; assay type: cell-based, human
Text: as §1

MDA-MB-435 = test: NCI-60 growth inhibition, MDA-MB-435; assay type: cell-based, human
Text: as §1

SK-OV-3 = test: NCI-60 growth inhibition, SK-OV-3; assay type: cell-based, human
Text: as §1

CAKI-1 = test: NCI-60 growth inhibition, CAKI-1; assay type: cell-based, human
Text: as §1

NCI/ADR-RES = test: NCI-60 growth inhibition, NCI/ADR-RES; assay type: cell-based, human; settings: Ovarian Cancer NCI/ADR-RES, 48 h
Text: as §1

T-47D = test: NCI-60 growth inhibition, T-47D; assay type: cell-based, human; settings: Breast Cancer T-47D, 48 h
Text: as §1

SF-268 = test: NCI-60 growth inhibition, SF-268; assay type: cell-based, human
Text: as §1

COLO 205 = test: NCI-60 growth inhibition, COLO 205; assay type: cell-based, human
Text: as §1

HS 578T = test: NCI-60 growth inhibition, HS 578T; assay type: cell-based, human; settings: Breast Cancer HS 578T, 48 h
Text: as §1

UACC-257 = test: NCI-60 growth inhibition, UACC-257; assay type: cell-based, human
Text: as §1

MDA-MB-468 = test: NCI-60 growth inhibition, MDA-MB-468; assay type: cell-based, human
Text: as §1

EKVX = test: NCI-60 growth inhibition, EKVX; assay type: cell-based, human; settings: Non-Small Cell lung Cancer EKVX, 48 h
Text: as §1

[1] = system: MCF7 cells pretreated with the ROS scavenger N-Acetyl-Cysteine (NAC); test: Cell viability of MCF7 cells pretreated with ROS scavenger NAC; assay type: cell-based, human; settings: 10 mM NAC, pre-incubation 2 hours
Description: FIG. 3 illustrates the effect of ROS on the activation of 1a-b. Cell viability assay of MCF7 cancer cells treated with varying concentrations of 1a-b in the presence of 10 mM NAC. Pre-incubation with this ROS scavenger was carried out for 2 hours. Data are presented as mean SD, n=4.
(§2) Cell Counting Kit-8 (CCK8, Dojingo) was used to carry out the cytotoxicity assessment of the prodrugs. Seeded cells were treated with varying compound concentrations for 48-72 h and the CCK8 kit was used to measure the cytotoxicity. For NAC experiments, this ROS scavenger was pre-incubated with the cells for 2 h and then co-incubated with the prodrugs for additional 48 hours unless otherwise noted.
(§3) The anticancer effects of new compounds 1a and 1b were tested using the breast cancer MCF7 cells and normal MEC1 cells (FIGS. 2A and 2B). […] These differential killing results highlight the specificity of new prodrugs 1a-1b for cancer cells over normal cells. […] To further verify the role of ROS in the drug release process, the MTT assays was performed, using MCF7 cells pretreated with the ROS scavenger N-Acetyl-Cysteine (NAC).

breast cancer MCF7 cells = test: Cell viability (CCK8) in breast cancer MCF7 cells; assay type: cell-based, human; settings: different concentrations, compared with parent drug 5-FU
Description: (§4) FIGS. 2A and 2B illustrate the anticancer effects and selectivity of 5-FU and compounds 1a-1c. Cell viability was analyzed after the breast cancer MCF7 cells (FIG. 2A) and normal MEC1 cells (FIG. 2B) were treated with 5-FU or compounds 1a-1c at different concentrations. Data are presented as mean±SD, n=4.
as §2, §3

[2] = Cell viability (CCK8) in normal MEC1 cells; assay type: cell-based
Description: as §4, §2, §3

O=c1[nH]c(=O)n(Cc2ccc(B(O)O)cc2)cc1F [Compound 1b, (4-((5-Fluoro-2,4-dioxo-3,4-dihydropyrimidin-I(2H)-yl)methyl)phenyl)boronic acid]
Growth Inhibition (%) (OVCAR-8; Ovarian Cancer OVCAR-8, 50 μM, 48 h): 6%
Growth Inhibition (%) (SW-620; Colon Cancer SW-620, 50 μM, 48 h): 17%
Growth Inhibition (%) (SN12C; 50 μM): 7%
Growth Inhibition (%) (DU-145; Prostate Cancer DU-145, 50 μM, 48 h): −6%
Growth Inhibition (%) (A498; Renal Cancer A498, 50 μM, 48 h): 31%
Growth Inhibition (%) (U251; CNS Cancer U251, 50 μM, 48 h): 4%
Growth Inhibition (%) (HCT-116; Colon Cancer HCT-116, 50 μM, 48 h): 18%
Growth Inhibition (%) (HOP-62; Non-Small Cell lung Cancer HOP-62, 50 μM, 48 h): 10%
Growth Inhibition (%) (NCI-H460; Non-Small Cell lung Cancer NCI-H460, 50 μM, 48 h): 1%
Growth Inhibition (%) (HL-60(TB); 50 μM): 11%
Growth Inhibition (%) (KM12; Colon Cancer KM12, 50 μM, 48 h): 20%
Growth Inhibition (%) (786-0; Renal Cancer 786-0, 50 μM, 48 h): 6%
Growth Inhibition (%) (A549/ATCC; 50 μM): 4%
Growth Inhibition (%) (SNB-19; CNS Cancer SNB-19, 50 μM, 48 h): 11%
Growth Inhibition (%) (MDA-MB-435; Melanoma MDA-MB-435, 50 μM, 48 h): 65%
Growth Inhibition (%) (SK-OV-3; Ovarian Cancer SK-OV-3, 50 μM, 48 h): 13%
Growth Inhibition (%) (CAKI-1; Renal Cancer CAKI-1, 50 μM, 48 h): 12%
Growth Inhibition (%) (NCI/ADR-RES; 50 μM): 0%
Growth Inhibition (%) (T-47D; 50 μM): 5%
Growth Inhibition (%) (SF-268; CNS Cancer SF-268, 50 μM, 48 h): 14%
Growth Inhibition (%) (COLO 205; Colon Cancer COLO 205, 50 μM, 48 h): 8%
Growth Inhibition (%) (HS 578T; 50 μM): 26%
Growth Inhibition (%) (UACC-257; Melanoma UACC-257, 50 μM, 48 h): 14%
Growth Inhibition (%) (MDA-MB-468; Breast Cancer MDA-MB-468, 50 μM, 48 h): 22%
Growth Inhibition (%) (EKVX; 50 μM): 16%
anticancer effects upon pretreatment of NAC [1]: decreased significantly

CC1(C)OB(c2ccc(Cn3cc(F)c(=O)[nH]c3=O)cc2)OC1(C)C [Compound 1a, 5-Fluoro-1-(4-(4,4,5,5-tetramethyl-1,3,2-dioxaborolan-2-yl)benzyl)pyrimidine-2,4(1H,3H)-dione]
inhibition at 50 µM (OVCAR-8; Homo sapiens, Ovarian Cancer OVCAR-8, 48 h): 25%
inhibition at 50 µM (SW-620; Homo sapiens, Colon Cancer SW-620, 48 h): 66%
inhibition at 50 µM (SN12C; Homo sapiens): 19%
antiproliferative activity / anticancer effects (breast cancer MCF7 cells): comparable antiproliferative activity as that of the parent drug 5-FU
inhibition at 50 µM (DU-145; Homo sapiens, Prostate Cancer DU-145, 48 h): 16%
inhibition at 50 µM (A498; Homo sapiens, Renal Cancer A498, 48 h): 74%
inhibition at 50 µM (U251; Homo sapiens, U-251, CNS Cancer U251, 48 h): 17%
inhibition at 50 µM (HCT-116; Homo sapiens, Colon Cancer HCT-116, 48 h): 71%
inhibition at 50 µM (HOP-62; Homo sapiens, Non-Small Cell lung Cancer HOP-62, 48 h): 36%
inhibition at 50 µM (NCI-H460; Homo sapiens, Non-Small Cell lung Cancer NCI-H460, 48 h): 66%
inhibition at 50 µM (HL-60(TB); Homo sapiens): 68%
inhibition at 50 µM (KM12; Homo sapiens, Colon Cancer KM12, 48 h): 74%
inhibition at 50 µM (786-0; Homo sapiens, Renal Cancer 786-0, 48 h): 19%
inhibition at 50 µM (A549/ATCC; Homo sapiens): 24%
inhibition at 50 µM (SNB-19; Homo sapiens, CNS Cancer SNB-19, 48 h): 29%
inhibition at 50 µM (MDA-MB-435; Homo sapiens, Melanoma MDA-MB-435, 48 h): 96%
inhibition at 50 µM (SK-OV-3; Homo sapiens, Ovarian Cancer SK-OV-3, 48 h): 31%
inhibition at 50 µM (CAKI-1; Homo sapiens, Renal Cancer CAKI-1, 48 h): 25%
inhibition at 50 µM (NCI/ADR-RES; Homo sapiens): 6%
inhibition at 50 µM (T-47D; Homo sapiens, T47D): 51%
inhibition at 50 µM (SF-268; Homo sapiens, CNS Cancer SF-268, 48 h): 31%
inhibition at 50 µM (COLO 205; Homo sapiens, Colon Cancer COLO 205, 48 h): 64%
inhibition at 50 µM (HS 578T; Homo sapiens): 63%
inhibition at 50 µM (UACC-257; Homo sapiens, Melanoma UACC-257, 48 h): 33%
inhibition at 50 µM (MDA-MB-468; Homo sapiens, Breast Cancer MDA-MB-468, 48 h): 87%
viability at 100 µM [2]: > 95%
inhibition at 50 µM (EKVX; Homo sapiens): 28%
anticancer effects upon pretreatment of NAC [1]: decreased significantly
